Legend:
[1] = biological target: T1, Porcine group 1B phospholipase A2 (pps PLA2) (Sus scrofa, UniProt P00592); experiment: Example 8 fluorimetric PLA2 inhibition assay (PPyrPM), porcine enzyme; assay type: biochemical
T1 construct: purchased
From the text: In this example, a fluorimetric assay procedure was used to evaluate the indole and indole-related compounds of the invention as inhibitors of group 1B phospholipase A2 (PLA2) from human, mouse and porcine. A description of this assay is found in articles: Leslie, C C and Gelb, M H (2004) Methods in Molecular Biology “Assaying phospholipase A2 activity”, 284:229-242; Singer, A G, et al. (2002) Journal of Biological Chemistry “Interfacial kinetic and binding properties of the complete set of human and mouse groups I, II, V, X, and XII secreted phospholipases A2”, 277:48535-48549, which are incorporated herein as references.
In general, this assay used a phosphatidylmethanol substrate with a pyrene fluorophore on the terminal end of the sn-2 fatty acyl chain. […] The effect of a given inhibitor and inhibitor concentration on human, mouse and porcine phospholipase was determined. […]
The following procedure was performed to evaluate the inhibitory potency of the evaluated compounds. • 1. […] The fluorescence was read using an excitation of 342 nm and an emission of 395 nm.
Evaluated compounds were tested in duplicate and their values were averaged to plot the inhibition curve and calculate the IC50. […] The IC50 was calculated using the BioDataFit 1.02 (Four Parameter Model) software package. […]

[2] = system: LDL receptor knockout mice (B6.129S7-Ldlrtm1Her); experiment: Example 11 LDL receptor knockout mice; assay type: in vivo, mouse; conditions: low fat control diet (D12328) with vs without test article
From the text: Mice lack an enzyme found in humans, cholesterol ester transfer protein (CETP), which is responsible for the transfer of cholesterol from high density lipoproteins (HDL) to the ApoB-containing lipoproteins such as very low density lipoproteins (VLDL) and low density lipoproteins (LDL). Consequently, LDL cholesterol levels in wild-type mice are very low compared to those seen in humans. The low density lipoprotein receptor (LDLR) is involved with clearing LDL and lipoprotein remnants containing apoE. If the LDLR is inactivated, LDL cholesterol levels rise to levels seen in humans. On a normal rodent diet, the LDL cholesterol levels in LDLR deficient mice are elevated compared to wild-type mice. […]
In these studies and the accompanying figures, Diet D12328 from Research Diets is referred to as the “Low Fat” or Control diet, while Diet D12079B from Research Diets is referred to as the “Western” diet. […] The Test Article content was calculated such that ad libitum consumption by the animals would deliver doses (in mg of Test Article per Kg animal weight per day) approximating those listed in Table 6.
Animals were maintained on the diets for twelve weeks. Body weights were recorded weekly. […] The serum was analyzed for total cholesterol, LDL cholesterol, HDL cholesterol, and triglycerides (TG). […]

T1 sequence (P00592 23-146): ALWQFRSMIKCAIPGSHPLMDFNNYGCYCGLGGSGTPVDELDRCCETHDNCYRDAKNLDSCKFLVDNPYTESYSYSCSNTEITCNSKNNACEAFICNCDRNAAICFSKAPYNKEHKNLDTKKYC

**Q.** Which IC50 [1] does the source give for `Cc1c(C(=O)C(N)=O)c2c(OCC(=O)NS(=O)(=O)CCCC(=O)O)cccc2n1Cc1ccccc1` [ILY-IV-40, 4-[2-(3-Aminooxalyl-1-benzyl-2-methyl-1H-indol-4-yloxy)-acetylsulfamoyl]-butyric acid] here?
**A.** 1.01 µM

**Q.** And the “effect in animals fed a low fat control diet” value [2]?
**A.** No or little effect

— patent publication US20090318492A1, “INDOLE COMPOUNDS HAVING C4-ACIDIC SUBSTITUENTS AND USE THEREOF AS PHOSPHOLIPASE-A2 INHIBITORS” (priority 2005, published 2009)
